Among the test systems are DLD-1 colon; DMS 273 small cell lung; KM20L2 colon; LXFL 529 NSCLC; RXF-631 renal; XF 498 CNS.
Assay in all cases: growth of human tumour cells (NCI), 48 h

Structures are written as SMILES.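 Briefly, cells in 96-well plates were exposed to five compound concentrations for 48 h, and endpoints were estimated by linear interpolation. TGI marks complete inhibition of growth.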 Bounds are passed on as bounds.

In the case of `COc1ccc(/C(Cl)=C(\C=O)c2ccc(Cl)cc2)cc1OC`, the TGI with DLD-1 colon is over 100 µM; with DMS 273 small cell lung, over 100 µM; in the assay on KM20L2 colon, 31.9 µM; in the assay on LXFL 529 NSCLC, 37.4 µM; with RXF-631 renal, over 100 µM.

In the case of `OC12c3ccccc3C1CCCCCC21OCCCO1` (configuration not stated), the TGI in the assay on DLD-1 colon, in the assay with DMS 273 small cell lung, in the assay with KM20L2 colon and with LXFL 529 NSCLC was over 100 µM in each case.

As for `CC[n+]1c(/C=C/c2ccc(N(CCCl)CCCl)cc2)ccc2cc(I)ccc21`, the TGI in the assay with DLD-1 colon amounted to 6.14 µM; with KM20L2 colon, 1.88 µM; with LXFL 529 NSCLC it was 1.52 µM.

In the case of `O=C(O)c1ccc(Nc2nc3nn(Cc4ccccc4)cc3c(=O)s2)cc1`, the TGI in the assay on DLD-1 colon, in the assay on DMS 273 small cell lung, with KM20L2 colon and in the assay on LXFL 529 NSCLC was over 100 µM each time.

Turning to `O/N=C\C(=Nc1ccc(Cc2ccc(N=C(/C=N\O)NO)cc2)cc1)NO`, the TGI with DLD-1 colon, in the assay on DMS 273 small cell lung, in the assay with KM20L2 colon, with LXFL 529 NSCLC and in the assay on XF 498 CNS was over 100 µM throughout.

In the assay on LXFL 529 NSCLC, `C=CCn1c(=N)/c(=C(\N)O)s/c1=C1/SC(=S)N(c2ccc(C)cc2)C1=O` came in with a TGI of over 100 µM.

For the molecule `O=C(c1ccco1)N(C(=S)N1CCN(c2ccccn2)CC1)c1ccccc1`, the TGI with DLD-1 colon, in the assay on DMS 273 small cell lung, in the assay on KM20L2 colon, with LXFL 529 NSCLC and with XF 498 CNS was over 100 µM in each case.

Source of the values: PubChem BioAssay (NCI).
